Experiments:
[1] = tested on: serum cholesterol and triglyceride; assay: Lowering of serum lipid levels, oral administration in diet to rats; assay type: in vivo, male rats COBS, CD, SD strain; conditions: 0.1% of test compound by weight in diet, 5 days, vs control rats
Procedure: The compounds were also tested for their ability to lower lipid levels in mammals. The compounds were administered orally admixed with diet to groups of four male rats COBS, CD, SD strain from Charles River Breeding Laboratories, Inc., Wilmington, Mass. A control group of eight rats was maintained on the diet alone; test groups were maintained on the diet plus 0.1% of test compound by weight. After 5 days treatment, serum cholesterol and triglyceride concentrations were determined by direct enzymatic procedures using a Centrifichem® System 400 autoanalyzer (Union Carbide Co.). Cholesterol concentrations were determined by the combined cholesterol esterasecholesterol oxidase procedure of Roeschlau, et al., Zeit. Klin. Chem. Klin. Biochem., 12, 226 (1974). Triglycerides were determined by the combined method of lipase catalyzed hydrolysis of triglycerides to glycerol and free fatty acids [Bucolo, G. and David, H., Clin. Chem., 19, 476 (1973) and Wahlefeld, A. W., in "Methods of Enzymatic Analysis," Vol, 4, Bergmeyer, H. D., Editor, Academic Press, New York, N.Y. (1974), pp. 1831-1835] and the enzymatic oxidation of the glycerol which leads to the production of colored formazan [Stavropoulos, W. S. and Crouch, R. D., Clin. Chem., 20, No. 7, 857 (1974)]. […] The compounds are considered active if they produce a statistically significant lowering of either sterol or triglycerides.

[2] = molecular target: T1, fatty acyl CoA:-cholesterol acyl transferase (ACAT) (Rattus norvegicus, UniProt O70536); assay: Inhibition of enzymatic esterification of cholesterol (ACAT inhibition), rat adrenal supernatant; assay type: biochemical; conditions: final concentration 5.2 μg./ml., 37° C., 30 minutes
T1 construct: The supernatant, containing the microsomal fraction, served as the source of the cholesterol-esterifying enzyme; from tissue; host or cells: rat adrenals, 1000 x g supernatant containing the microsomal fraction
T1 sequence (O70536 1-545): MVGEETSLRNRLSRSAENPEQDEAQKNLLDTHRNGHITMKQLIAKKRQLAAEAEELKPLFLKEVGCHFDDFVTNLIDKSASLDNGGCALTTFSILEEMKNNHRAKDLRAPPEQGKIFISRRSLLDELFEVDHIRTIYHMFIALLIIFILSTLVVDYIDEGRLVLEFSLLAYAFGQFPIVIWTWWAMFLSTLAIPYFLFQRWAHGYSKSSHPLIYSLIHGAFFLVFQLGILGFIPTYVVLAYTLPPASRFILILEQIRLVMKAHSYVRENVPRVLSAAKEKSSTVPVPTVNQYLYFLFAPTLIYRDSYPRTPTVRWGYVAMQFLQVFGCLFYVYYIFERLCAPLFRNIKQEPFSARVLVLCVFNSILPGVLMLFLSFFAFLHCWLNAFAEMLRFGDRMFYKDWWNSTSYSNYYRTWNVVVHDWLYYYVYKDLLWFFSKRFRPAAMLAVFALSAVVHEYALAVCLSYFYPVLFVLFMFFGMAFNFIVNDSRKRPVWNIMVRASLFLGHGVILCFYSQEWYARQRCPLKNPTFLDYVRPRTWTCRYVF
Procedure: The compounds of the present invention were tested for their ability to inhibit the enzymatic esterification of cholesterol according to the procedure of Hashimoto, et al., Life Sci., 12(Part II), 1-12 (1973).
Rat adrenals were homogenized in 0.2 M monobasic potassium phosphate buffer, pH 7.4, and centrifuged at 1000 times gravity for 15 minutes at 5° C. The supernatant, containing the microsomal fraction, served as the source of the cholesterol-esterifying enzyme, fatty acyl CoA:-cholesterol acyl transferase (ACAT). A mixture comprising 50 parts of adrenal supernatant, 10 parts of bovine serum albumin (50 mg./ml.), 3 parts of test compound (final concentration 5.2 μg./ml.) and 500 parts of buffer were preincubated at 37° C. for 10 minutes, following which 20 parts of oleoyl […] were added and the final mixture was incubated at 37° C. for 30 minutes. A control mixture, omitting the test compound, was prepared and treated in the same manner. The lipids from the incubation mixture were extracted into an organic solvent and separated by thin-layer chromatography. The cholesterol ester fraction was counted in a scintillation counter. A statistically significant inhibition of the ACAT enzyme is the criterion for activity.

[3] = tested on: aortic sterol content; assay: Decrease of aortic sterol content without effecting serum sterol in cholesterol-fed cockerels; assay type: in vivo, Day-old Cockerels; set-up: key: Active: Compounds which statistically decrease the aortic sterol content without having an effect on serum sterol are considered to be active; conditions: 525 mg. test compound and 20 g. cholesterol per kg. of diet, 14 days
Procedure: The compounds were further tested for their ability to decrease aortic sterol content without effecting serum sterol.
Day-old Cockerels were placed on diets consisting of pullet starter mash supplemented with either 20 g. cholesterol (control group) or 20 g. cholesterol and 525 mg. test compound (drug-treated group) per kg. of diet.
For the control diet, 20 g. of cholesterol was dissolved in 200 ml. of chloroform, mixed into one kg. of pullet starter mash and then the choloroform was removed by evaporation.
For the drug-treatment group, 525 mg. of the test compound was dissolved in 100 ml. of chloroform, mixed into a diet prepared as described above and then the chloroform was evaporated.
The cockerels were housed three per cage and given water and their respective diet ad libitum for 14 days. Blood was collected by cardiac puncture and the serum was saponified [Trinder, P., Analyst, 77, 321 (1952)] and extracted and the cholesterol content determinted [Zlatkis, A., et al., J. Lab Clin Med., 41 486 (1953)]. The aortae were removed, cleaned of adventitial tissue and the sterol content determined according to the above procedures. Compounds which statistically decrease the aortic sterol content without having an effect on serum sterol are considered to be active.

| Compound | % Lowering of Serum Triglycerides [1] | inhibition at 5.2 µg/mL [2] | also measured |
| --- | --- | --- | --- |
| O=C(Cc1ccc(Cl)cc1Cl)N1CCN(c2cnccn2)CC1 [1-(2,4-Dichlorophenylacetyl)-4-(2-pyrazinyl)piperazine] | 44% | 32.2% | – |
| Cc1ccccc1CC(=O)N1CCN(c2cnccn2)CC1 [1-(2-Methylphenylacetyl)-4-(2-pyrazinyl)piperazine] | 55% | – | – |
| CC(Oc1ccccc1)C(=O)N1CCN(c2cnccn2)CC1 (stereo not shown) [1-(2-Phenoxypropionyl)-4-(2-pyrazinyl)piperazine] | 62% | 30.5% | – |
| O=C(c1cccnc1)N1CCN(c2cnccn2)CC1 [1-(2-Pyrazinyl)-4-(3-pyridylcarbonyl)piperazine] | 30% | – | – |
| Cc1cccc(CC(=O)N2CCN(c3cnccn3)CC2)c1 [1-(2-Pyrazinyl)-4-(m-tolylacetyl)piperazine] | 40% | – | – |
| Cc1ccc(CC(=O)N2CCN(c3cnccn3)CC2)cc1 [1-(2-Pyrazinyl)-4-(p-tolylacetyl)piperazine] | 49% | – | Result (decrease of aortic sterol content without effect on serum sterol) [3]: Active |
| O=C(c1ccccc1C(F)(F)F)N1CCN(c2cnccn2)CC1 [1-(2-Pyrazinyl)-4-(α,α,α-trifluoro-o-toluoyl)piperazine] | – | – | Result (decrease of aortic sterol content without effect on serum sterol) [3]: Active |
| Cc1ccccc1CC(=O)N1CCN(c2nccs2)CC1 [1-(2-Thiazolyl)-4-o-tolylacetylpiperazine] | – | 32.6% | – |
| COc1cncc(N2CCN(C(=O)Cc3ccccc3)CC2)n1 [1-(6-Methoxy-2-pyrazinyl)-4-phenylacetylpiperazine] | 56% | 38.1% | – |
| O=C(N1CCN(c2cnccn2)CC1)C(F)(F)C(F)(F)C(F)(F)C(F)(F)C(F)(F)C(F)(F)C(F)(F)F [1-(Pentadecafluorooctanoyl)-4-(2-pyrazinyl)piperazine] | 74% | 39% | % Lowering of Serum Sterol [1]: 47% |
| O=C(Cc1cccc(Cl)c1)N1CCN(c2cnccn2)CC1 [1-(m-Chlorophenylacetyl)-4-(2-pyrazinyl)piperazine] | 46% | – | – |
| Cc1ccccc1CC(=O)N1CCN(c2cnccn2)CC1 [1-(o-Methylphenylacetyl)-4-(2-pyrazinyl)piperazine] | – | – | Result (decrease of aortic sterol content without effect on serum sterol) [3]: Active |
| CC1CN(C(=O)Cc2ccccc2)CCN1c1ccc(Cl)cc1 (stereo not shown) [1-(p-Chlorophenyl)-2-methyl-4-phenylacetylpiperazine] | 61% | 88.1% | – |
| O=C(Cc1ccccc1)N1CCN(c2ccc(Cl)cc2)CC1 [1-(p-Chlorophenyl)-4-phenylacetylpiperazine] | – | 73.3% | – |
| O=C(Cc1ccc(Cl)cc1)N1CCN(c2cnccn2)CC1 [1-(p-Chlorophenylacetyl)-4-(2-pyrazinyl)piperazine] | 51% | – | – |
| CC(C)(C)c1ccc(C(=O)N2CCN(c3cnccn3)CC2)cc1 [1-(p-tert.-Butylbenzoyl)-4-(2-pyrazinyl)piperazine] | – | 39.7% | – |
| O=C(C1CC1)N1CCN(c2cnccn2)CC1 [1-Cyclopropylcarbonyl-4-(2-pyrazinyl)piperazine] | 37% | – | – |

| Compound | % Lowering of Serum Triglycerides [1] | inhibition at 5.2 µg/mL [2] | also measured |
| --- | --- | --- | --- |
| O=C(N1CCN(c2cnccn2)CC1)C(F)(F)C(F)(F)C(F)(F)F [1-Heptafluorobutyroyl-4-(2-pyrazinyl)piperazine] | 51% | – | – |
| O=C(c1c(F)c(F)c(F)c(F)c1F)N1CCN(c2cnccn2)CC1 [1-Pentafluorobenzoyl-4-(2-pyrazinyl)piperazine] | – | 31.2% | – |
| O=C(Cc1ccccc1)N1CCN(c2cnc3ccccc3n2)CC1 [1-Phenylacetyl-4-(2-quinoxalinyl)piperazine] | – | 40.1% | – |
| O=C(Cc1ccccc1)N1CCN(Cc2cccnc2)CC1 [1-Phenylacetyl-4-(3-pyridylmethyl)piperazine] | 34% | – | – |
| CC(C)(Oc1ccc(Cl)cc1)C(=O)N1CCN(c2cnccn2)CC1 [1-[2-(p-Chlorophenoxy)-2-methylpropionyl]-4-(2-pyrazinyl)piperazine] | 42% | 54.1% | – |
| O=C(CCCCC(=O)N1CCN(c2cnccn2)CC1)c1ccc(Cl)cc1 [1-[5-(p-Chlorobenzoyl)valeryl]-4-(2-pyrazinyl)piperazine] | 45% | 47.4% | – |
| O=C(CCCCCc1ccc(Cl)cc1)N1CCN(c2cnccn2)CC1 [1-[6-(p-Chlorophenyl)hexanoyl]-4-(2-pyrazinyl)piperazine] | 30% | 68.9% | – |
| O=C(c1ccccc1)N1CCN(c2cnccn2)CC1 [1-benzoyl-4-(2-pyrazinyl)piperazine, 1-Benzoyl-4-(2-pyrazinyl)piperazine] | 30% | – | – |
| CCCCCCCC(=O)N1CCN(c2cnccn2)CC1 [1-octanoyl-4-(2-pyrazinyl)piperazine, 1-Octanoyl-4-(2-pyrazinyl)piperazine] | – | 33.6% | – |
| O=C(Cc1ccccc1)N1CCN(c2ccc3ccccc3n2)CC1 [1-phenylacetyl-4-(2-quinolyl)piperazine, 1-Phenylacetyl-4-(2-quinolyl)piperazine] | 53% | 89.7% | % Lowering of Serum Sterol [1]: 69% |
| O=C(Nc1c(Cl)cccc1Cl)N1CCN(c2cnccn2)CC1 [2',6'-Dichloro-4-(2-pyrazinyl)-1-piperazinecarboxanilide] | – | – | Result (decrease of aortic sterol content without effect on serum sterol) [3]: Active |
| O=C(Nc1ccc(Cl)cc1)N1CCN(c2cnccn2)CC1 [4'-Chloro-4-(2-pyrazinyl)-1-piperazinecarboxanilide] | 33% | – | – |
| CCOC(=O)c1ccc(NC(=O)N2CCN(c3cnccn3)CC2)cc1 [Ethyl-p-[4-(2-pyrazinyl)-1-piperazinecarboxamido]benzoate] | – | 42.2% | – |
| CCNC(=O)N1CCN(c2cnccn2)CC1 [N--Ethyl-4-(2-pyrazinyl)-1-piperazinecarboxamide] | 43% | – | – |
| CNC(=O)N1CCN(c2cnccn2)CC1 [N--Methyl-4-(2-pyrazinyl)-1-piperazinecarboxamide] | 38% | – | – |
| CC(C)(C)NC(=O)N1CCN(c2cnccn2)CC1 [N--tert.-Butyl-4-(2-pyrazinyl)-1-piperazinecarboxamide] | – | 35.4% | – |
| O=C(O)c1ccc(NC(=O)N2CCN(c3cnccn3)CC2)cc1 [p-[4-(2-Pyrazinyl)-1-piperazinecarboxamide]-benzoic acid] | – | 30.6% | – |
